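Exposure lasted 48 hours, with cells grown in 96-well plates and compounds tested at five concentrations. GI50 = concentration required for 50% inhibition of growth. At the TGI there is no net growth.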
How the values were obtained:
Assay in all cases: inhibition of tumour cell growth, NCI panel, 48 h
SNB-75 CNS = test system: SNB-75 CNS
786-0 renal = test system: 786-0 renal
A549 NSCLC = test system: A549 NSCLC
ACHN renal = test system: ACHN renal
CAKI-1 renal = test system: CAKI-1 renal
CCRF-CEM leukemia = test system: CCRF-CEM leukemia
COLO 205 colon = test system: COLO 205 colon
DU-145 prostate = test system: DU-145 prostate
EKVX NSCLC = test system: EKVX NSCLC
HCC-2998 colon = test system: HCC-2998 colon
HCT-116 colon = test system: HCT-116 colon
HCT-15 colon = test system: HCT-15 colon
HL-60(TB) leukemia = test system: HL-60(TB) leukemia
HOP-62 NSCLC = test system: HOP-62 NSCLC
HOP-92 NSCLC = test system: HOP-92 NSCLC
HS 578T breast = test system: HS 578T breast
HT29 colon = test system: HT29 colon
IGROV1 ovarian = test system: IGROV1 ovarian
K-562 leukemia = test system: K-562 leukemia
KM12 colon = test system: KM12 colon
M14 melanoma = test system: M14 melanoma
MALME-3M melanoma = test system: MALME-3M melanoma
MCF7 breast = test system: MCF7 breast
MDA-MB-231 breast = test system: MDA-MB-231 breast
MDA-MB-435 = test system: MDA-MB-435
MOLT-4 leukemia = test system: MOLT-4 leukemia
NCI-H226 lung = test system: NCI-H226 lung
NCI-H23 lung = test system: NCI-H23 lung
NCI-H460 lung = test system: NCI-H460 lung
NCI-H522 lung = test system: NCI-H522 lung
NCI/ADR-RES ovarian = test system: NCI/ADR-RES ovarian
OVCAR-3 ovarian = test system: OVCAR-3 ovarian
OVCAR-4 ovarian = test system: OVCAR-4 ovarian
OVCAR-5 ovarian = test system: OVCAR-5 ovarian
OVCAR-8 ovarian = test system: OVCAR-8 ovarian
PC-3 prostate = test system: PC-3 prostate
RPMI-8226 leukemia = test system: RPMI-8226 leukemia
RXF 393 renal = test system: RXF 393 renal
SF-268 CNS = test system: SF-268 CNS
SF-295 CNS = test system: SF-295 CNS
SF-539 CNS = test system: SF-539 CNS
SK-MEL-2 melanoma = test system: SK-MEL-2 melanoma
SK-MEL-28 melanoma = test system: SK-MEL-28 melanoma
SK-MEL-5 melanoma = test system: SK-MEL-5 melanoma
SK-OV-3 ovarian = test system: SK-OV-3 ovarian
SN12C renal = test system: SN12C renal
SNB-19 CNS = test system: SNB-19 CNS
SR leukemia = test system: SR leukemia
SW-620 colon = test system: SW-620 colon
T-47D breast = test system: T-47D breast
TK-10 renal = test system: TK-10 renal
UACC-257 melanoma = test system: UACC-257 melanoma
UACC-62 melanoma = test system: UACC-62 melanoma
UO-31 renal = test system: UO-31 renal
A498 renal = test system: A498 renal
LOX IMVI melanoma = test system: LOX IMVI melanoma
U251 CNS = test system: U251 CNS

`CC(=O)OCCCCCn1cnc(C(N)=O)c1N` was tested, and the GI50 (SNB-75 CNS) was 87.1 µM.
In the case of `Nc1ncc(Cc2nn3c(COc4ccc(Cl)cc4)nnc3s2)s1`, the TGI (786-0 renal) was greater than 100 µM, the TGI (A549 NSCLC) was greater than 100 µM and the TGI (ACHN renal) was 14 µM. The TGI (CAKI-1 renal) was greater than 100 µM, the TGI (CCRF-CEM leukemia) was greater than 100 µM and the TGI (COLO 205 colon) was greater than 100 µM. For the same compound, the TGI (DU-145 prostate) was greater than 100 µM, the TGI (EKVX NSCLC) was greater than 100 µM and the TGI (HCC-2998 colon) was greater than 100 µM. For the same compound, the TGI (HCT-116 colon) was greater than 100 µM, the TGI (HCT-15 colon) was 19.1 µM and the TGI (HL-60(TB) leukemia) was greater than 100 µM. The TGI (HOP-62 NSCLC) was greater than 100 µM, the TGI (HOP-92 NSCLC) was greater than 100 µM and the TGI (HS 578T breast) was greater than 100 µM. For the same compound, the TGI (HT29 colon) was greater than 100 µM, the TGI (IGROV1 ovarian) was greater than 100 µM and the TGI (K-562 leukemia) was greater than 100 µM. It also gave a TGI (KM12 colon) greater than 100 µM, a TGI (M14 melanoma) greater than 100 µM and a TGI (MALME-3M melanoma) greater than 100 µM. It also gave a TGI (MCF7 breast) greater than 100 µM, a TGI (MDA-MB-231 breast) greater than 100 µM and a TGI (MDA-MB-435) greater than 100 µM. For the same compound, the TGI (MOLT-4 leukemia) was greater than 100 µM, the TGI (NCI-H226 lung) was greater than 100 µM and the TGI (NCI-H23 lung) was greater than 100 µM. The TGI (NCI-H460 lung) was greater than 100 µM, the TGI (NCI-H522 lung) was greater than 100 µM and the TGI (NCI/ADR-RES ovarian) was greater than 100 µM. It also gave a TGI (OVCAR-3 ovarian) greater than 100 µM, a TGI (OVCAR-4 ovarian) greater than 100 µM and a TGI (OVCAR-5 ovarian) greater than 100 µM. The TGI (OVCAR-8 ovarian) was greater than 100 µM, the TGI (PC-3 prostate) was greater than 100 µM and the TGI (RPMI-8226 leukemia) was greater than 100 µM. For the same compound, the TGI (RXF 393 renal) was greater than 100 µM, the TGI (SF-268 CNS) was greater than 100 µM and the TGI (SF-295 CNS) was greater than 100 µM. The TGI (SF-539 CNS) was greater than 100 µM, the TGI (SK-MEL-2 melanoma) was greater than 100 µM and the TGI (SK-MEL-28 melanoma) was greater than 100 µM. For the same compound, the TGI (SK-MEL-5 melanoma) was greater than 100 µM, the TGI (SK-OV-3 ovarian) was greater than 100 µM and the TGI (SN12C renal) was greater than 100 µM. It also gave a TGI (SNB-19 CNS) greater than 100 µM, a TGI (SNB-75 CNS) greater than 100 µM and a TGI (SR leukemia) greater than 100 µM. For the same compound, the TGI (SW-620 colon) was greater than 100 µM, the TGI (T-47D breast) was greater than 100 µM and the TGI (TK-10 renal) was greater than 100 µM. For the same compound, the TGI (UACC-257 melanoma) was greater than 100 µM, the TGI (UACC-62 melanoma) was greater than 100 µM and the TGI (UO-31 renal) was greater than 100 µM.
Work on `N#CC(C#N)=C/C=C/c1cccc([N+](=O)[O-])c1` yielded a GI50 (786-0 renal) of 1.51 µM, a TGI (786-0 renal) of 3.17 µM and a GI50 (A498 renal) of 1.99 µM. It also gave a TGI (A498 renal) of 5.21 µM, a GI50 (A549 NSCLC) of 2.29 µM and a TGI (A549 NSCLC) of 16.8 µM. It also gave a GI50 (ACHN renal) of 0.927 µM, a TGI (ACHN renal) of 2.22 µM and a GI50 (CAKI-1 renal) of 0.457 µM. For the same compound, the TGI (CAKI-1 renal) was 4 µM, the GI50 (CCRF-CEM leukemia) was 0.556 µM and the TGI (CCRF-CEM leukemia) was 15.2 µM. The GI50 (COLO 205 colon) was 1.26 µM, the TGI (COLO 205 colon) was 3.26 µM and the GI50 (DU-145 prostate) was 1.05 µM. The TGI (DU-145 prostate) was 12.8 µM, the GI50 (EKVX NSCLC) was 3.47 µM and the TGI (EKVX NSCLC) was 27.8 µM. For the same compound, the GI50 (HCC-2998 colon) was 1.68 µM, the TGI (HCC-2998 colon) was 3.05 µM and the GI50 (HCT-116 colon) was 0.277 µM. For the same compound, the TGI (HCT-116 colon) was 1.1 µM, the GI50 (HCT-15 colon) was 1.39 µM and the TGI (HCT-15 colon) was 3.98 µM. The GI50 (HL-60(TB) leukemia) was 0.345 µM, the TGI (HL-60(TB) leukemia) was 5.38 µM and the GI50 (HOP-62 NSCLC) was 1.81 µM. The TGI (HOP-62 NSCLC) was 6.39 µM, the GI50 (HOP-92 NSCLC) was 2.43 µM and the TGI (HOP-92 NSCLC) was 7.71 µM. For the same compound, the GI50 (HS 578T breast) was 0.325 µM, the TGI (HS 578T breast) was 2.75 µM and the GI50 (IGROV1 ovarian) was 0.71 µM. For the same compound, the TGI (IGROV1 ovarian) was 9.32 µM, the GI50 (K-562 leukemia) was 1.59 µM and the TGI (K-562 leukemia) was greater than 100 µM. The GI50 (KM12 colon) was 1.28 µM, the TGI (KM12 colon) was 3.2 µM and the GI50 (LOX IMVI melanoma) was 0.913 µM. For the same compound, the TGI (LOX IMVI melanoma) was 2.37 µM, the GI50 (M14 melanoma) was 0.658 µM and the TGI (M14 melanoma) was 2.18 µM. It also gave a GI50 (MALME-3M melanoma) of 1.69 µM, a TGI (MALME-3M melanoma) of 8.87 µM and a GI50 (MCF7 breast) of 0.482 µM. The TGI (MCF7 breast) was 9.55 µM, the GI50 (MDA-MB-231 breast) was 1.74 µM and the TGI (MDA-MB-231 breast) was 16 µM. It also gave a GI50 (MDA-MB-435) of 0.426 µM, a TGI (MDA-MB-435) of 2.53 µM and a GI50 (MOLT-4 leukemia) of 0.391 µM. The TGI (MOLT-4 leukemia) was 13.6 µM, the GI50 (NCI-H23 lung) was 1.59 µM and the TGI (NCI-H23 lung) was 4.26 µM. It also gave a GI50 (NCI-H460 lung) of 1.21 µM, a TGI (NCI-H460 lung) of 2.68 µM and a GI50 (NCI/ADR-RES ovarian) of 0.652 µM. The TGI (NCI/ADR-RES ovarian) was 5.04 µM, the GI50 (OVCAR-3 ovarian) was 0.533 µM and the TGI (OVCAR-3 ovarian) was 4.36 µM. For the same compound, the GI50 (OVCAR-4 ovarian) was 3.09 µM, the TGI (OVCAR-4 ovarian) was 13.9 µM and the GI50 (OVCAR-5 ovarian) was 2.24 µM. For the same compound, the TGI (OVCAR-5 ovarian) was 7.96 µM, the GI50 (OVCAR-8 ovarian) was 0.329 µM and the TGI (OVCAR-8 ovarian) was 1.36 µM. For the same compound, the GI50 (PC-3 prostate) was 2.09 µM, the TGI (PC-3 prostate) was 19.3 µM and the GI50 (RPMI-8226 leukemia) was 1.59 µM. The TGI (RPMI-8226 leukemia) was 9.6 µM, the GI50 (RXF 393 renal) was 0.8 µM and the TGI (RXF 393 renal) was 2.06 µM. It also gave a GI50 (SF-268 CNS) of 1.54 µM, a TGI (SF-268 CNS) of 12.9 µM and a GI50 (SF-295 CNS) of 2.28 µM. It also gave a TGI (SF-295 CNS) of 10.3 µM, a GI50 (SF-539 CNS) of 2.55 µM and a TGI (SF-539 CNS) of 18.4 µM. The GI50 (SK-MEL-28 melanoma) was 1.38 µM, the TGI (SK-MEL-28 melanoma) was 3.23 µM and the GI50 (SK-MEL-5 melanoma) was 1.35 µM. It also gave a TGI (SK-MEL-5 melanoma) of 2.66 µM, a GI50 (SK-OV-3 ovarian) of 2.62 µM and a TGI (SK-OV-3 ovarian) of 9.2 µM. The GI50 (SN12C renal) was 3.23 µM, the TGI (SN12C renal) was 30 µM and the GI50 (SNB-19 CNS) was 3.35 µM. The TGI (SNB-19 CNS) was 16 µM, the GI50 (SNB-75 CNS) was 1.73 µM and the TGI (SNB-75 CNS) was 6.28 µM. For the same compound, the GI50 (SR leukemia) was 0.576 µM, the TGI (SR leukemia) was 15.3 µM and the GI50 (SW-620 colon) was 0.914 µM. The TGI (SW-620 colon) was 2.57 µM, the GI50 (T-47D breast) was 1.4 µM and the TGI (T-47D breast) was 6.81 µM. It also gave a GI50 (U251 CNS) of 1.08 µM, a TGI (U251 CNS) of 5.03 µM and a GI50 (UACC-257 melanoma) of 1.33 µM. For the same compound, the TGI (UACC-257 melanoma) was 3.94 µM, the GI50 (UACC-62 melanoma) was 1.3 µM and the TGI (UACC-62 melanoma) was 2.96 µM.

Reference: PubChem BioAssay (NCI)
